# Laboratory results reported in publication PMC9977398, “Next-generation membrane-active glycopeptide antibiotics that also inhibit bacterial cell division” (Chemical Science, 2023).
# Read-outs that look alike come from different tables or passages of the source.
# Key:
# [1] = tested on: E. coli; test: MIC against E. coli; format: cell-based; details: Escherichia coli
# [2] = tested on: GFP-FtsZ expressing E. coli; test: GFP-FtsZ localization and morphology; format: cell-based; details: 15 μM
# Description: The FtsZ protein assembles into a membrane-associated ring structure at the division septum. It recruits other proteins for the progression and completion of cell division.[34] The effect of VanQAmC10 on the localization of FtsZ and morphology in E. coli producing green fluorescent protein (GFP)-tagged FtsZ was studied through microscopy (Fig. 5B). The cells were treated with IPTG to overexpress gfp-ftsZ and then either treated with compounds or left untreated. Upon treatment with 15 μM of VanQAmC10, the cells appear to be filamentous with variable lengths of up to 4 μm, while cells in the control group were ∼2.5 μm long. Incubation with VanQAmC10 for a longer time (130 minutes) results in bulkier filamentous cells, with severely distorted shapes (Fig. S4 ^†). […] IPTG-treated cells formed minicells of ∼1.5 μm length, which is characteristic of cells overproducing FtsZ.[35] Known inhibitors of FtsZ alter the regular midcell distribution of Z-rings.[36] […]
# resuspended in prewarmed BMM media. […] The fluorescence in the GFP and Texas red channels was then observed under the microscope. […]
# About 6 μl of sample was immobilized on 1% agarose pad . DIC and fluorescence images were obtained at different time intervals using Nikon Eclipse Ti Microscope equipped with Nikon DS-U3 camera through Plan Apo 100×/1.40 oil objective. […]
# [3] = tested on: MRSA ATCC 33591; test: Activity in blood plasma and liver homogenate; format: cell-based, S. aureus; details: for MIC: Staphylococcus aureus
# Description: Table S1: Activity of VanQAmC10 in mouse plasma and liver homogenate against MRSA […]
# MIC of VanQAmC10 post incubation in (μM) […]
# Activity in blood plasma and liver homogenate
# To examine the susceptibility of VanQAmC10 to serum proteases, the antibacterial activities was tested in the presence of 50% of plasma and liver homogenate. Briefly, 250 μL of VanQAmC10 was added into 250 μL of fresh […] plasma and incubated at 37 °C. An aliquot of the samples 3 h and 24h post-incubation was diluted in 0.9% saline and the antibacterial activity (MIC) were determined against MRSA and VRE by following the same protocol as described above for the antibacterial assay. […]
# 50 μL of ∼10^6 CFU/mL bacterial inoculum (MRSA ATCC33591) was injected into the thigh. 1 h post-inoculation, animals were treated intraperitoneally twice with 12 h intervals with saline, vancomycin (12 mg kg−1), and VanQAmC10 (12 mg kg−1). 24 h post the first treatment, the animals were euthanized (using ether) and the thighs were collected aseptically. The thigh tissue was weighed and homogenized. The dilutions of the homogenate were plated onto agar plates, which were incubated overnight at about 37 °C. […]
# In-vivo activity in murine burn wound infectionmodel 10-12
# [4] = tested on: carbapenem-resistant A. baumannii; test: Murine chronic burn-wound infection model; format: in vivo, mice; details: 30 mg kg^−1 topically for 5 days; untreated 8 log CFU g^−1
# Description: Fig. 6 (A) Propensity of vancomycin and VanQAmC10 to induce resistance in MRSA upon serial exposure to sub-MIC concentrations; (B) (i) experimental design for in vivo efficacy study in a murine thigh infection model, (ii) in vivo efficacy of VanQAmC10 and vancomycin against the multidrug-resistant methicillin-resistant S. aureus (MRSA) (n = 3/dose). Antibiotics were administered intraperitoneally twice at 12 h intervals at a dose of 12 mg kg^−1. (C) (i) Experimental design for in vivo efficacy study in murine burn wound infection model, (ii) in vivo efficacy of VanQAmC10 and colistin against the carbapenem-resistant A. baumannii (n = 5/dose, 1 mouse died in untreated control). VanQAmC10 and colistin were treated topically at 30 mg kg^−1 for 5 days (‘***’ indicates p < 0.0001, ‘**’ indicates p < 0.001, ‘*’ p < 0.05, p = 0.08 (n.s.) for VanQAmC10 with respect to vancomycin).
# Further, the efficacy of VanQAmC10 (8) was tested in a chronic burn-wound infection model of A. baumannii.[40] Chronic burn wounds on the back of mice were infected with A. baumannii. […] Infected mice were treated with 30 mg kg^−1 of VanQAmC10 and colistin for five days consecutively. The bacterial load in the untreated group increased to 8 log CFU g^−1 six days post-infection. […] The use of colistin is however limited due to its toxicity and bacteria easily develop resistance to it. […]
# [5] = tested on: A. baumannii; set-up: method as in PMID 32195571; details: cited from earlier work
smiles,measurement,setting,value
CCCCCCCCCCNC(=O)C[N+](C)(C)CCCNC(=O)C1NC(=O)C2NC(=O)C(NC(=O)C3NC(=O)C(CC(N)=O)NC(=O)C(NC(=O)C(CC(C)C)NC)C(O)c4ccc(c(Cl)c4)Oc4cc3cc(c4OC3OC(CO)C(O)C(O)C3OC3CC(C)(N)C(O)C(C)O3)Oc3ccc(cc3Cl)C2O)c2ccc(O)c(c2)-c2c(O)cc(O)cc21 (stereo not drawn) [VanQAmC10 (8)],MIC,[1],16 µM
same,localization and distribution of Z-rings,[2],remain unaltered
same,length of filamentous cells,"[2]; 40 min, control cells ∼2.5 μm",up to 4 μm
same,change of MIC in plasma and liver homogenate,[3]; MRSA,remained unchanged
same,MIC,[3]; read-out: MIC post incubation in plasma,0.4 µM
same,MIC,"[3]; MRSA ATCC 33591, read-out: MIC post incubation in liver homogenate",0.4 µM
same,MIC,"[3]; MRSA ATCC 33591, read-out: MIC post incubation in media",0.4 µM
same,lower bacterial load as compared to the untreated mice,[4],2.2 log CFU g^−1
same,resistance induction in A. baumannii,[5],does not induce resistance
